Results from patent US11439646B2, “Anti-proliferative agents for treating PAH” (Pfizer Inc., priority 2016, dated 2022).

Key:
hPAAF = experiment: EdU cell proliferation assay, hPAAF; format: cell-based; settings: Homo sapiens, 5% FBS, N = 6, FIG. 1f, read-out: hPAAF IC50 (nM), inhibition of proliferation
Procedure: (§1) Alternatively, rather than using BrdU, EdU (5-ethynyl-2′-deoxyuridine) can be used. Cells were first pre-incubated with different concentrations of the CDK inhibitor for 30 minutes, and then 5% FBS was added to stimulate cell proliferation. Cells were maintained for 24 h before the proliferation rate was evaluated using EDU Click-iT EdU Alexa Fluor® 647 HCS Assay (Thermofisher Scientific, USA). EdU was added to the medium 16 h before the quantification of EdU incorporation. Proliferation was quantified by scanning the 96-well plates using automated high content imaging platform equipped with appropriate fluorescence microscopic filters for DAPI (4′,6-Diamidino-2-Phenylindole) or Hoechst stain and Cyanine5 dyes as part of the Click-iT assay. Proliferating EdU positive cells detected at Cyanine5 were quantified and normalized to total cell number per well where the total cell number per cell was identified by DAPI or Hoechst signal. The % effect was then calculated:
(§2) The average (avg) amount (amt) of proliferating cells per concentration of CDK inhibitor with FBS present.
(§3) The minimum amount of proliferation (min amt of prolif'n) is based on cell numbers in the wells where FBS is not added and no CDK inhibitor is present.
(§4) The maximum amount of proliferation (max amt of prolif'n) is based on cell numbers in the wells where FBS is added and no CDK inhibitor is present.

rPASMC = experiment: EdU cell proliferation assay, rPASMC; format: cell-based; settings: Rattus norvegicus, 5% FBS, N = 6, FIG. 1g, read-out: rPASMC IC50 (nM), inhibition of proliferation
Procedure: as §1, §2, §3, §4

hPASMC = experiment: EdU cell proliferation assay, hPASMC; format: cell-based; settings: Homo sapiens, 5% FBS, N = 6, FIG. 1e, read-out: hPASMC IC50 (nM), inhibition of proliferation
Procedure: as §1, §2, §3, §4

phospho-Rb (Ser807/811) = experiment: In-cell western analysis of Rb phosphorylation in human PASMCs; format: cell-based; settings: Homo sapiens, PASMC; 10% FBS; N = 6; FIG. 2c; read-out: Average IC50 (nM), inhibition of phosphorylation of Rb in hPASMCs
Procedure: In-cell western analysis. Primary PASMCs from normal human subjects were cultured and serum-starved as described above. Cells were first pre-incubated with different concentrations of palbociclib for 60 minutes, and then either 5% FBS or 10% FBS or 30 ng/ml PDGF-BB was added to stimulate cell proliferation and Rb phosphorylation. The effect of Palbociclib on Rb phosphorylation was evaluated 24 h later, using in-cell western assay according to the manufacturer's instructions (Li-Cor Biosciences, Lincoln, Nebr., USA). Phosphorylated Rb was measured using a rabbit monoclonal antibody anti-phospho-Rb (Ser807/811) (Cell Signaling Technology, Inc., Danvers, Mass., USA), followed by detection with IRDye 800CW infrared fluorescent dye-labeled goat anti-rabbit secondary antibody. Actin levels were measured using mouse anti-actin monoclonal antibodies (pan Ab-5) (Fisher Scientific Pittsburgh, Pa., USA; Sigma Aldrich, St. Louis, Mo., USA), and followed by detection with IRDye 680RD-labeled goat anti-mouse secondary antibody. See FIG. 2a where 5% FBS was used, FIG. 2b where PDGF-BB was used, and FIG. 2c where 10% FBS was used.

rat Su5416/Hx PAH model = experiment: Rat SuHx (Su5416/hypoxia)-induced PAH model (hemodynamics, histomorphometry, IHC); format: in vivo; settings: for lung weight vs vehicle/Su5416/Hx group / vessel-associated Ki67+ cells in the pulmonary vasculature (IHC) / vessel-associated pRb+ cells in the pulmonary vasculature (IHC): days 7 to 28; for MPAP: days 7 to 28, FIG. 4b; for Fulton Index: days 7 to 28, FIG. 4c; for muscularized intra-acinar vessel density relative to vehicle/Su5416/Hx group: days 7 to 28, FIG. 4e; for DPAP: days 7 to 28, FIG. 4i; for heart weight vs vehicle/Su5416/Hx group: days 7 to 28, FIG. 4j; for average vessel wall thickness, intra-acinar and pre-acinar vessels: days 7 to 28, FIG. 4d
Procedure: SuHx-induced Pulmonary Arterial Hypertension: Sprague-Dawley rats were obtained from Charles River Laboratories (200-300 g; vehicle control, n=5; all other groups, n=10). Rats received Semaxinib dissolved in DMSO on day 0, followed by housing in low (13%) oxygen until day 28. Sildenafil (30 mg/kg/dose; BID), Riociguat (10 mg/kg, QD) or Palbociclib (100 mg/kg; QD) was administered in vehicle (0.5% methylcellulose) from days 7-28. Terminal hemodynamic evaluations and necropsy were conducted on day 28 in a manner similar to the MCT study.
Hemodynamic measurements Su/Hx study: On day 28, animals were anesthetized via intramuscular injection of ketamine/xylazine (80/10 mg/kg). A Millar catheter was inserted into the pulmonary artery and pulmonary pressure and hemodynamics were measured as described by Stringer et al., (1981) Catheterization of the pulmonary artery in the closed-chest rat. J. Appl. Physiol. 51, 1047-1050. Hemodynamic values were calculated using the NOTOCORD-Hem software (NOTOCORD, Inc., Croissy sur Sienne, France) (CorDynamics).
(§5) Measurement of RV hypertrophy. After collection of the heart at necropsy, the atria and great vessels were removed. The RV was separated from the LV and S. The wet weights of the RV and LV+S were measured to calculate the Fulton Index.
(§6) Tissue preparation. Under anesthesia, the animals were exsanguinated, and the pulmonary circulation flushed with oxygenated (animals from Example 3 [MCT]) or heparizined (animals from Example 4 [Su5416/Hx]) saline. Trachea, lungs, and heart were removed intact from thoracic cavity and placed in ice-cold saline. Right lung lobes were removed, weighed, and immediately flash frozen in liquid nitrogen. A 10 mL syringe filled with fixative (10% NBF) with attached blunt tip needle (20 g) was used to inflate the left lung lobe and the airway was tied off to keep it consistently expanded. The left lung was then immersion fixed in 10% NBF for 48 hrs and then transferred to 70% EtOH for ≤5 days.
(§7) Histomorphometric analysis. Three, 3-5 μm thick, transverse sections of the left lung lobe were used for histomorphometric analysis. Overall disease severity scores were determined by light microscopic evaluation of hematoxylin and eosin (H&E)-stained lung sections by a board-certified veterinary pathologist. Scores ranged from 0 (absent), 1 (minimal), 2 (mild), 3 (moderate), 4 (marked) to 5 (severe) and were assigned according to the approximate percentage of the tissue affected by the tissue changes (inflammatory, degenerative, vascular and/or proliferative) characteristic of the PAH model. Average vessel wall thickness was evaluated using lung sections prepared with a modified Verhoeff-van Gieson elastin stain. Image analysis was performed using random field sampling (Visiopharm newCAST) of 10% of tissue area with observer-assisted identification of intra-acinar and pre-acinar vessels and application of a nucleator probe to measure vessel wall thickness. Fully muscularized intra-acinar vessel density was evaluated in a similar manner using dual αSMA/Ki67 IHC-stained sections and observer-assisted counting of ≥70% muscularized (i.e. SMA^+), transversely sectioned, ≤50 μm external diameter, intra-acinar vessels with an identifiable lumen. Vessel-associated Ki67^+ and pRb^+ cells were counted in αSMA/Ki67 IHC-and CD31/pRb IHC-stained lung sections, respectively, using random field sampling of 10% of tissue area and observer-assisted identification of Ki67^+ or pRb^+ cells associated with the walls (i.e. in the intima or media) of vessels 100 μm external diameter.
Immunohistochemistry. Dual α-SMA/Ki67 nuclear antigen: All IHC steps were performed on 3 μm-thick, formalin-fixed, paraffin-embedded (FFPE) sections on Leica Bond Rx automated immunohistochemistry stainer. The instrument was programmed to bake and dewax the slides. […]

[1] = test system: Rat MCT-induced PAH Model; experiment: Rat MCT-induced PAH model (hemodynamics, histomorphometry, IHC); format: in vivo
Procedure: Rat MCT-induced PAH Model: Male Sprague-Dawley rats (Charles River Laboratories) (260-280 g; vehicle control group, n=6; all other groups, n=15) received MCT (50 mg/kg, SC; 1 ml/kg BVV) dissolved in vehicle (33.3% 1 N HCl, 14.8% 1 N NaOH, 52.2% diH2O) or vehicle alone on day 0. Sildenafil (50 mg/kg/dose; BID) was administered (5 ml/kg, PO) either prophylactically from days 0-28 or therapeutically from days 14-28. Palbociclib (100 mg/kg; QD) was administered therapeutically (days 14-28). Both sildenafil and palbociclib were resuspended in vehicle (0.5% methylcellulose) and administered orally (5 ml/kg). On day 28, animals were anesthetized via isoflurane, hemodynamic parameters were evaluated, and tissues harvested after euthanasia.
Hemodynamic measurements—monocrotaline (MCT) study: On day 28, animals were anesthetized via 2% isofluorane in positive pressure ventilator. Pulmonary hemodynamics were measured using a pre-calibrated pressure transducer in isoflurane positive-pressure ventilated animals. Steady-state pulmonary and systemic arterial pressures were measured using a Millar Solid State Mikro-tip catheter (Millar Instruments, Houston, Tex.) introduced to the pulmonary arterial trunk at the level of the aortic arch via the right carodid artery. Hemodynamic values were automatically calculated by the physiological data acquisition system, ADI Chart (ADI Instruments, Colorado Springs, Colo.) (Plato BioPharma).
as §5, §6, §7
Immunohistochemistry. […]

[2] = day 0-28, score scale 0-5, FIG. 3g

| IC50 (phospho-Rb (Ser807/811)) | Compound | IC50 (hPAAF) | IC50 (rPASMC) | IC50 (hPASMC) | lung weight vs vehicle/Su5416/Hx group (rat Su5416/Hx PAH model) | vessel-associated Ki67+ cells in the pulmonary vasculature (IHC) (rat Su5416/Hx PAH model) | vessel-associated pRb+ cells in the pulmonary vasculature (IHC) (rat Su5416/Hx PAH model) | MPAP (rat Su5416/Hx PAH model) | Fulton Index (rat Su5416/Hx PAH model) | muscularized intra-acinar vessel density relative to vehicle/Su5416/Hx group (rat Su5416/Hx PAH model) | DPAP (rat Su5416/Hx PAH model) | heart weight vs vehicle/Su5416/Hx group (rat Su5416/Hx PAH model) | average vessel wall thickness, intra-acinar and pre-acinar vessels (rat Su5416/Hx PAH model) | further results |
| --- | --- | --- | --- | --- | --- | --- | --- | --- | --- | --- | --- | --- | --- | --- |
| 262 nM | CCN1CCN(Cc2ccc(Nc3ncc(F)c(-c4cc(F)c5nc(C)n(C(C)C)c5c4)n3)nc2)CC1 [Abemaciclib, 2-pyrimidinamine, N-(5-((4-ethyl-1-piperazinyl)methyl)-2-pyridinyl)-5-fluoro-4-(4-fluoro-2-methyl-1-(1-methylethyl)-1H-benzimidazol-6-yl)] | 1.2 nM | 13 nM | 6.5 nM |  |  |  |  |  |  |  |  |  |  |
| 352 nM | CN(C)C(=O)c1cc2cnc(Nc3ccc(N4CCNCC4)cn3)nc2n1C1CCCC1 [Ribociclib, 7-cyclopentyl-N, N-dimethyl-2-((5-(piperazin-1-yl)pyridin-2-yl)amino)-7H-pyrrolo[2,3-d]pyrimidine-6-carboxamide] | 0.8 nM | 28.6 nM | 0.5 nM |  |  |  |  |  |  |  |  |  |  |
|  | COC(=O)N(C)c1c(N)nc(-c2nn(Cc3ccccc3F)c3ncccc23)nc1N [Riociguat] |  |  |  | no change | no significant beneficial effect | no significant beneficial effect | significantly reduced | only a slight reduction | not statistically significantly different | significantly reduced | no change | not |  |
|  | CCCc1nn(C)c2c(=O)[nH]c(-c3cc(S(=O)(=O)N4CCN(C)CC4)ccc3OCC)nc12 [Sildenafil] |  |  |  | no change | no significant beneficial effect | no significant beneficial effect | significantly reduced | only a slight reduction | not statistically significantly different | significantly reduced | no change | not | density of fully muscularized intra-acinar vessels (αSMA staining) ([1]; day 0-28, FIG. 3e): effective; average vessel wall thickness relative to vehicle/MCT group ([1]; day 0-28, FIG. 3d): 0.76 x MCT; disease severity scores, mean [1, 2]: 2.5; disease severity scores, range [1, 2]: 1-4; average vessel wall thickness (elastin staining), intra-acinar and pre-acinar pulmonary arteries, relative to vehicle/MCT group ([1]; day 14-28, FIG. 3d): little effect; PAH-related increase in MPAP ([1]; dosed prophylactically day 0-28, sildenafil 50 mg/kg/dose PO BID, FIG. 3b): significantly reduced; PAH-related increase in Fulton Index ([1]; prophylactic day 0-28, FIG. 3c): significantly reduced; PAH-related increase in DPAP ([1]; prophylactic day 0-28, FIG. 3i): significantly reduced; PAH-related increase in heart weight ([1]; prophylactic day 0-28, FIG. 3j): significantly reduced; PAH-related increase in SPAP ([1]; prophylactic day 0-28, FIG. 3h): significantly reduced; DPAP ([1]; therapeutic day 14-28): small and non-significant reduction; Fulton Index ([1]; therapeutic day 14-28): small and non-significant reduction; MPAP ([1]; therapeutic day 14-28): small and non-significant reduction; SPAP ([1]; therapeutic day 14-28): small and non-significant reduction; heart weight ([1]; therapeutic day 14-28): small and non-significant reduction; SPAP (rat Su5416/Hx PAH model; days 7 to 28, FIG. 4h): significantly reduced |
